In brackets after ≈: the same amount, converted by molar mass. Read-outs that look alike come from different tables or passages of the source. Some results are limits rather than exact numbers.

Assay type in all cases: cell-based
The test system of test [1] is Propionibacterium acnes. Description: Agar diffusion method (inhibition zones). Particulars: diameter of inhibition zone; Wilkins-Chalgren agar with 5 wt% sheep blood; 20 µl test substance; 18 to 24 at 37 °C, anaerobic. The text has this: (§1) Die antibakterielle Wirksamkeit der Wirkstoffe und Wirkstoffinischungen wurde mit Hilfe der Diffusionsmethode auf Agar-Platten bzw. der Agar-Verdünnungsmethode untersucht. Dabei wird zunächst ein rundes Filterpapier definierten Durchmessers mit der Testlösung getränkt und dieses dann auf die Oberfläche einer Agarplatte aufgebracht, welche zuvor mit den Testmikroorganismen inokuliert worden war. Anschließend wird nach definierten Zeiten die Größe der Inhibierungszonen bestimmt. Diese Technik erlaubt es insbesondere die MIC (Minimum Inhibitory Concentration) als die niedrigste Testsubstanzkonzentration zu bestimmen, mit der noch eine vollständige Inhibierung der Mikroorganismen erzielt werden kann.
(§2) Agar-Diffusionsmethode. Das Inokulum wurde unter Verwendung einer frischen Kultur in einer stationären Wachstumsphase (nach ca. 18-24 h) in einer BHI-Lösung (Brain-Heart-InfüsionI) hergestellt. Die Bakteriensuspension wurde auf 0,5 MacFarland-Einheiten eingestellt, entsprechend 1,5 10^8 Kolonienbildende Einheiten (cfu)/ml; anschließend wurde die Suspension mit einer Kochsalzlösung 1/100 verdünnt, um einen Wert von 1,5 10^6 cfu/ml einzustellen. Anschließend wurde Mueller-Hinton Agar (Staphylococcus epidermis, Staphylococcus aureus) und Wilkins-Chalgrens Agar mit 5 Gew.-% Schafsblut (Propionobakterium acnes) 15 min bei 121 °C sterilisiert und dann in Petrischalen gegeben. Die Petrischalen wurden mit 2 bis 4 ml der Bakteriensuspensionen versetzt und bei Raumtemperatur getrocknet. Die Filterpapiere wurden mit 20 µl der Testsubstanzen getränkt und auf die Oberfläche der Agarplatten aufgebracht. Die inokulierten Petrischalen wurden 18 bis 24 bei 37 °C inkubiert (die Petrischalen mit Propionibacterium acnes unter anaeroben Bedingungen) und die antimikrobielle Wirksamkeit anschließend durch Bestimmung der Wachstumsinhibierungszone ermittelt. Die Ergebnisse sind in Tabelle 1 zusammengefasst. Angegeben sind ist jeweils der Durchmesser der Inhibierungsflächen in mm.
On the technique in general: A growth-free zone around the sample is the usual read-out of agar diffusion tests.

Test [2] deals with Staphylococcus aureus. The test can be described thus: Agar diffusion method (inhibition zones). Particulars: diameter of inhibition zone; Mueller-Hinton agar; filter paper with 20 µl test substance; 18 to 24 at 37 °C.
Excerpt: as §1, §2

Test [3] has as its system Staphylococcus epidermidis. The test can be described thus: Agar diffusion method (inhibition zones). Conditions: diameter of inhibition zone; Mueller-Hinton agar; filter paper with 20 µl test substance; 18 to 24 at 37 °C.
Excerpt: as §1, §2

The subject of test [4] is Propionibacterium acnes. The test can be described thus: Agar dilution method (MIC determination). Conditions: lowest concentration with complete inhibition of growth, 37 °C, 18 to 24 h, mean of duplicate determinations.
Excerpt: as §1
(§3) Agar Verdünnungsmethode (MIC-Bestimmung). Wie oben beschrieben wurden verschiedene Agars vorbereitet, mit unterschiedlichen Konzentrationen an Testsubstanzen versetzt, homogenisiert und dann getrocknet. Anschließend erfolgte die Inokulation der Petrischalen mit jeweils 2 µl der Bakteriensuspensionen. […] Es handelt sich jeweils um den Mittelwert von Doppelbestimmungen.
For orientation: In agar dilution the substance is mixed into plates at graded concentrations.

In test [5] the test system is Staphylococcus aureus. Description: Agar dilution method (MIC determination). Particulars: lowest concentration with complete inhibition of growth, 37 °C, 18 to 24 h, mean of duplicate determinations.
Excerpt: as §1, §3

Test [6] concerns Staphylococcus epidermidis. The test can be described thus: Agar dilution method (MIC determination). Conditions: lowest concentration with complete inhibition of growth, 37 °C, 18 to 24 h, mean of duplicate determinations.
Excerpt: as §1, §3

What is called MIC is the lowest concentration that inhibits growth of the organism. Turning to `O=C(OOC(=O)c1ccccc1)c1ccccc1` [A1, Benzoylperoxid], the figures for the Inhibierungszonen (in the test on Propionibacterium acnes [1]; in the test with Staphylococcus aureus [2]; in test [3]) were 7 mm, 5 mm and 5 mm, respectively. Further, the MIC with Propionibacterium acnes [4] (Cutibacterium acnes, read-out: MIC) is 1250 mg/L (≈ 5.16 mM); in the test on Staphylococcus aureus [5] (Staphylococcus aureus, read-out: MIC) it was more than 10000 mg/L; in test [6] (Staphylococcus epidermidis, read-out: MIC), 1250 mg/L (≈ 5.16 mM).

On to Glyzyrrhetinsäure-Zinksalz [B1], for which the Inhibierungszonen with Propionibacterium acnes [1] turned out to be 4 mm; in the test with Staphylococcus aureus [2], 5 mm; in test [3], 5 mm. In addition, the results for the MIC (in the test with Propionibacterium acnes [4]; in the test with Staphylococcus aureus [5]; in test [6]) were 1,25 mg/ml, more than 10000 mg/L and 1,25 mg/ml, respectively.

Source of the values: patent EP1382341A1, “Use of compositions comprising glycyrrhetinic acid and benzoyl peroxide for acne treatment” (Cognis Iberia, S.L., priority 2002, dated 2004).
